From patent US6878742B2, “Heterocyclic sulfonamide inhibitors of beta amyloid production” (Wyeth, priority 2000, dated 2005)
“And” between values parts separate entries of the source, which are not always exact repeats. Equal entries are not always repeated. Where two headings read alike, the source gives them in different places.

System: amyloid precursor protein (APP) proteolysis
Test: Repressor Release Assay (RRA)
Type: cell-based
Conditions: for fold induction at 10 µg/mL / fold induction at 20 µg/mL: read-out: APPI Fold Increase
Procedure, shortened: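 CHO-K1 cells grown in DMEM with 10% fetal bovine serum were transiently co-transfected with pRSVO-luc and APP-lacI constructs via Lipofectamine Plus, plated into opaque 96-well plates, and exposed to diluted compound in duplicate for 36-48 hours at 37° C. LucLite luciferase signal was read on a TopCount and expressed as fold increase in relative light units over Hepes/DMSO diluent control.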

[1] = Conc 10 μg/mL, luciferase activity over diluent control
[2] = Conc 20 μg/mL, luciferase activity over diluent control
[3] = Conc 1 μg/mL, luciferase activity over diluent control
[4] = Conc 3 μg/mL, luciferase activity over diluent control

Molecule: CC[C@H](C)[C@@H](CO)NS(=O)(=O)c1sc(Cl)cc1Br [Example 1, 3-Bromo-5-chloro-N-[(1S,2S)-1-(hydroxymethyl)-2-methylbutyl]thiophene-2-sulfonamide]
- fold induction at 10 µg/mL [1]: 1.57

Molecule: CCNC(C)(CO)CNS(=O)(=O)c1ccc(Cl)s1 (stereo not shown) [Example 80]
- APPI Fold Increase [2]: 1.8 fold

Molecule: C=CCCC(O)[C@@H](NS(=O)(=O)c1cccs1)[C@@H](C)CC (stereo partly drawn) [Example 151, N-{(S)-2-hydroxy-1-[(S)-1-methylpropyl]hex-5-enyl}thiophene-2-sulfonamide]
- fold induction at 10 µg/mL [1]: 1.94

Molecule: O=S(=O)(N[C@H](CO)C1CCC(NCc2ccccc2)CC1)c1ccc(Cl)s1 (stereo partly drawn) [Example 211, 5-Chloro-N-[(S)-2-hydroxy-1-(4-benzylaminocyclohexyl)ethyl]thiophene-2-sulfonamide]
- fold induction at 20 µg/mL [2]: 1.9

Molecule: CCCCC(CC)C(CO)NS(=O)(=O)c1ccc(Cl)s1 (stereo not shown) [Example 21, 5-chloro-N-[2-ethyl-1-(hydroxymethyl)hexyl]thiophene-2-sulfonamide]
- fold induction at 20 µg/mL: 3.3

Molecule: CCCCC[C@H](CC)[C@@H](CO)NS(=O)(=O)c1ccc(Br)s1 [Example 62, 5-bromo-N-[(1S,2S)-2-ethyl-1-(hydroxymethyl)heptyl]thiophene-2-sulfonamide]
- fold induction at 20 µg/mL [2]: 4.5

Molecule: CC[C@H](C)[C@@H](CO)NS(=O)(=O)c1ccc(I)s1 [Example 207, N-[(1S,2S)-1-(Hydroxymethyl)-2-methylbutyl]-5-iodo-2-thiophenesulfonamide]
- fold induction at 20 µg/mL [2]: 5.6

Molecule: CC[C@H](C)[C@H](NS(=O)(=O)c1ccc(Cl)s1)[C@@H](O)C1C=CCCC1 (stereo partly drawn) [Example 155, 5-Chloro-N-{(S,S)-1-[(S)-cyclohex-2-en-1-yl(hydroxy)methyl]-2-methylbutyl}thiophene-2-sulfonamide]
- fold induction at 20 µg/mL [2]: 4.2

Molecule: CC(C)(CO)NS(=O)(=O)c1ccc(Br)s1 [Example 107, 5-bromo-N-(2-hydroxy-1,1-dimethylethyl)thiophene-2-sulfonamide]
- fold induction at 20 µg/mL [2]: 1.5

Molecule: O=S(=O)(N[C@H](CO)CSCc1ccccc1)c1ccc(Br)s1 [Example 114, N-[R-2-(benzylthio)-1-(hydroxymethyl)ethyl]-5-bromothiophene-2-sulfonamide]
- fold induction at 20 µg/mL [2]: 1.8

Molecule: CC[C@H](c1ccc(OC)cc1)[C@@H](CO)NS(=O)(=O)c1ccc(Cl)s1 [Example 32, 5-chloro-N-[(1S,2R)-1-(hydroxymethyl)-2-(4-methoxyphenyl)butyl]thiophene-2-sulfonamide]
- fold induction at 20 µg/mL [2]: 5

Molecule: CCCCC(CCCC)[C@@H](CO)NS(=O)(=O)c1ccc(Cl)s1 [Example 205, N-[(1S)-2-Butyl-1-(hydroxymethyl)hexyl]-5-chloro-2-thiophenesulfonamide]
- fold induction at 20 µg/mL [2]: 2.6

Molecule: CC[C@@H](c1ccc(-c2ccccc2)cc1)[C@@H](CO)NS(=O)(=O)c1ccc(Br)s1 [Example 76, N-[(1S,2S)-2-[1,1′-biphenyl]-4-yl-1-(hydroxymethyl)butyl]-5-bromothiophene-2-sulfonamide]
- fold induction at 20 µg/mL [2]: 3.2

Molecule: CCCCC[C@H](c1ccc(OC)cc1)[C@@H](CO)NS(=O)(=O)c1ccc(Cl)s1 [Example 43, 5-chloro-N-[(1S,2R)-1-(hydroxymethyl)-2-(4-methoxyphenyl)heptyl]thiophene-2-sulfonamide]
- fold induction at 20 µg/mL [2]: 1.7

Molecule: CC[C@H](C)[C@H](NS(=O)(=O)c1cccs1)C(O)c1ccccc1C (stereo partly drawn) [Example 144, N-{(S,S)-1-[hydroxy(2-methylphenyl)methyl]-2-methylbutyl}thiophene-2-sulfonamide]
- fold induction at 10 µg/mL [1]: 1.51

Molecule: CC[C@@H](C)[C@@H](CO)NS(=O)(=O)c1ccc(Br)s1 [Example 17]
- APPI Fold Increase [3]: 2.38 fold
- APPI Fold Increase [4]: 3.47 fold
- APPI Fold Increase [1]: 3.29 fold
- APPI Fold Increase [2]: 6.1 fold and 3.5 fold

Molecule: CCCCCC[C@H](CC)[C@@H](CO)NS(=O)(=O)c1ccc(Cl)s1 [Example 77B, 5-chloro-N-[(1S,2S)-2-ethyl-1-(hydroxymethyl)octyl]thiophene-2-sulfonamide]
- fold induction at 20 µg/mL [2]: 16.9

Molecule: CCCCC(CO)NS(=O)(=O)c1ccc(Br)s1 (racemic) [Example 106, 5-bromo-N-[1-(hydroxymethyl)pentyl]thiophene-2-sulfonamide]
- fold induction at 20 µg/mL [2]: 2.4

Molecule: O=S(=O)(N[C@H](CO)C1CCC(NCc2cccnc2)CC1)c1ccc(Cl)s1 (stereo partly drawn) [Example 216, 5-chloro-N-[(S)-2-hydroxy-1-(4-(3-pyridyl)methylaminocyclohexyl)ethyl]thiophene-2-sulfonamide]
- fold induction at 20 µg/mL [2]: 1.5

Molecule: CCC(NC)[C@@H](CO)NS(=O)(=O)c1ccc(Cl)s1 (stereo partly drawn) [Example 79, 5-Chloro-N-[(1S)-1-(hydroxymethyl)-2-(methylamino)butyl]thiophene-2-sulfonamide]
- fold induction at 20 µg/mL [2]: 1.6

Molecule: C=C(C)C(O)(C(=C)C)[C@@H](NS(=O)(=O)c1ccc(Br)s1)[C@@H](C)CC [Example 174, 5-bromo-N-{(S)-2-hydroxy-2-isopropenyl-3-methyl-1-[(S)-1-methylpropyl]but-3-enyl}thiophene-2-sulfonamide]
- fold induction at 10 µg/mL [1]: 1.75

Molecule: CCCNC1CCC(C(CO)NS(=O)(=O)c2ccc(Cl)s2)CC1 (mixture of isomers) [Example 214]
- APPI Fold Increase [2]: 2.1 fold

Molecule: CCC(NCCO)[C@@H](CO)NS(=O)(=O)c1ccc(Cl)s1 (stereo partly drawn) [Example 82, 5-chloro-N-[(1S)-2-[(2-hydroxyethyl)amino]-1-(hydroxymethyl)butyl]-2-thiophenesulfonamide]
- fold induction at 20 µg/mL [2]: 2.2

Molecule: O=S(=O)(N[C@H](CO)c1ccccc1)c1ccc(Br)s1 [Example 104, 5-bromo-N-[(S)-2-hydroxy-1-phenylethyl]thiophene-2-sulfonamide]
- fold induction at 20 µg/mL [2]: 2.5

Molecule: COC1CCC([C@@H](CO)NS(=O)(=O)c2ccc(Cl)s2)CC1 (stereo partly drawn) [Example 199, 5-Chloro-N-[(S)-2-hydroxy-1-(4-methoxycyclohexyl)ethyl]thiophene-2-sulfonamide]
- fold induction at 20 µg/mL [2]: 2.8

Molecule: CC#CC(O)[C@@H](NS(=O)(=O)c1cccs1)[C@@H](C)CC (stereo partly drawn) [Example 152, N-{(S)-2-hydroxy-1-[(S)-1-methylpropyl]pent-3-ynyl}thiophene-2-sulfonamide]
- fold induction at 10 µg/mL [1]: 1.51

Molecule: CC(C)C[C@@H](C)[C@@H](CO)NS(=O)(=O)c1ccc(Br)s1 [Example 56, 5-bromo-N-[(1S,2R)-1-(hydroxymethyl)-2,4-dimethylpentyl]thiophene-2-sulfonamide]
- fold induction at 20 µg/mL [2]: 6.8

Molecule: 5-chloro-N-{(S,S)-2-hydroxy-1-[(S)-1-methylpropyl]pent-4-enyl}thiophene-2-sulfonamide [Example 188]
- APPI Fold Increase [2]: 6.3 fold and 3.6 fold

Molecule: C=CCOC1CCC([C@@H](CO)NS(=O)(=O)c2ccc(Cl)s2)CC1 (stereo partly drawn) [Example 201, N-{(S)-1-[4-(allyloxy)cyclohexyl]-2-hydroxyethyl}-5-chlorothiophene-2-sulfonamide]
- fold induction at 20 µg/mL [2]: 2.2

Molecule: O=S(=O)(NC1(CO)CCCC1)c1ccc(Br)s1 [Example 109]
- APPI Fold Increase [4]: 1.8 fold
- APPI Fold Increase [1]: 2 fold

Molecule: O=S(=O)(N[C@H](CO)C1Cc2ccccc2C1)c1ccc(Cl)s1 [Example 228, 5-Chloro-N-[(1S)-1-(2,3-dihydro-1H-inden-2-yl)-2-hydroxyethyl]thiophene-2-sulfonamide]
- fold induction at 20 µg/mL [2]: 9.9

Molecule: CC[C@H](C)[C@H](NS(=O)(=O)c1ccc(Cl)s1)C(O)(c1cccc2ccccc12)c1cccc2ccccc12 [Example 172, 5-chloro-N-((S,S)-1-{hydroxy[di(1-naphthyl)]methyl}-2-methylbutyl)thiophene-2-sulfonamide]
- fold induction at 10 µg/mL [1]: 2

Molecule: C[C@@H](c1ccccc1)[C@@H](CO)NS(=O)(=O)c1ccc(Cl)s1 [Example 46, 5-chloro-N-[(1S,2S)-1-(hydroxymethyl)-2-phenylpropyl]thiophene-2-sulfonamide]
- fold induction at 20 µg/mL [2]: 5.8

Molecule: O=S(=O)(NC(CO)C1CCCC1)c1ccc(Cl)s1 (stereo not shown) [Example 24, 5-chloro-N-(1-cyclopentyl-2-hydroxyethyl)thiophene-2-sulfonamide]
- fold induction at 20 µg/mL: 6

Molecule: CCCCCC(O)C(NS(=O)(=O)c1ccc(Cl)s1)C(C)CC (mixture of isomers) [Example 122]
- APPI Fold Increase [1]: 1.68 fold and 1.8 fold

Molecule: CC(C)CC(CO)NS(=O)(=O)c1ccc(Br)s1 (stereo not shown) [Example 105]
- APPI Fold Increase [3]: 1.57 fold
- APPI Fold Increase [4]: 2.23 fold
- APPI Fold Increase [1]: 3.93 fold
- APPI Fold Increase [2]: 2.4 fold and 1.5 fold

Molecule: O=S(=O)(N[C@H](CO)CSCc1ccccc1)c1ccc(Cl)s1 [Example 101, N-[R-2-(benzylthio)-1-(hydroxymethyl)ethyl]-5-chlorothiophene-2-sulfonamide]
- fold induction at 20 µg/mL [2]: 2.7

Molecule: CC[C@H](C)[C@@H](CO)NS(=O)(=O)c1ccc(Br)s1 [Example 2]
- APPI Fold Increase [3]: 1.79 fold and 1.54 fold
- APPI Fold Increase [4]: 2.96 fold and 2.34 fold
- APPI Fold Increase [1]: 4.26 fold and 3.2 fold and 3.06 fold
- APPI Fold Increase [2]: 4.5 fold and 5.5 fold and 6.3 fold

Molecule: COc1ccc([C@@H](C)[C@@H](CO)NS(=O)(=O)c2ccc(Cl)s2)cc1 [Example 28, 5-chloro-N-[(1S,2R)-1-(hydroxymethyl)-2-(4-methoxyphenyl)propyl]thiophene-2-sulfonamide]
- fold induction at 20 µg/mL [2]: 7

Molecule: CCCCCC(O)(CCCCC)[C@@H](NS(=O)(=O)c1ccc(Cl)s1)[C@@H](C)CC [Example 163, 5-chloro-N-{(S)-2-hydroxy-1-[(S)-1-methylpropyl]-2-pentylheptyl}thiophene-2-sulfonamide]
- fold induction at 10 µg/mL [1]: 3.3

Molecule: CCCCCCC(O)[C@@H](NS(=O)(=O)c1cccs1)[C@@H](C)CC (stereo partly drawn) [Example 141, N-{(S)-2-hydroxy-1-[(S)-1-methylpropyl]octyl}thiophene-2-sulfonamide]
- fold induction at 10 µg/mL [1]: 4.2

Molecule: CCC(CC)[C@@H](CO)NS(=O)(=O)c1ccc(Br)s1 [Example 58, 5-bromo-N-[(1S)-2-ethyl-1-(hydroxymethyl)butyl]thiophene-2-sulfonamide]
- fold induction at 20 µg/mL [2]: 10
